# Measured values: patent US20150368195A1, “INDOLINE COMPOUNDS FOR TREATMENT AND/OR PREVENTION OF INFLAMMATION DISEASES” (Taipei Medical University, priority 2014, published 2015)
# Like-named read-outs stand apart in the source and are kept apart here.
# Tests used:
# prostaglandin E2 (PGE2) [1] = assay: LPS-induced PGE2 production in RAW 264.7 macrophages; format: cell-based, Mouse; details: for IC50: Mus musculus, RAW264.7, LPS-stimulated RAW 264.7 macrophages, mean ± SEM, three experiments
# Description: (§1) Furthermore, the anti-inflammatory effects of MPT0G009 was evaluated. […] These supernatants were then assayed for PGE2, NO, and IL-6.
# nitric oxide (NO) = assay: LPS-induced nitric oxide production in RAW 264.7 macrophages; format: cell-based, Mouse; details: for IC50: Mus musculus, RAW264.7, LPS-stimulated RAW 264.7 macrophages, mean ± SEM, three experiments
# Description: Nitrite concentration was determined using a dilution of sodium nitrite as a standard.
# as §1
# interleukin-6 (IL-6) = assay: LPS-induced IL-6 production in RAW 264.7 macrophages; details: Mus musculus, RAW264.7, read-out: IC50 IL-6
# [2] = system: tumor necrosis factor-α (TNF-α); assay: LPS-induced TNF-α production in RAW 264.7 macrophages; details: Mus musculus, RAW264.7, read-out: IC50 TNF-α
# [3] = system: carrageenan-induced hind paw edema; assay: carrageenan-induced hind paw edema; details: for carrageenan-induced hind paw edema: oral, 1 h before carrageenan, compound 9 25 mg/kg, SAHA 200 mg/kg, Indomethacin 5 mg/kg, measured 3 h after
# Description: A 0.5% (w/v) suspension of carrageenan in normal saline was administered to male Wistar rats (7-weeks) by intradermal injection into the base of the right hind paw. […] A positive control group was included in which rats were pretreated with 5 mg/kg Indomethacin. […] The results are expressed as the mean±SEM, with n=5. *p<0.05 compared to the control group; #p<0.05 for the comparison of the indicated groups.
# Animals were divided into four groups (n=5). 0.5% (w/v) suspension of carrageenan in normal saline was administered to male Wistar rats (7-weeks) by intradermal injection into the base of the right hind paw. […] A positive control group was included in which rats were pretreated with 5 mg/kg Indomethacin. Three hours after carrageenan administration, the thickness and volume of the right hind paw were measured by digital caliper and digital plethysmometer (Diagnostic & Research Instruments CO., Ltd, Taipei, Taiwan), respectively.
# [4] = system: adjuvant-induced arthritis; assay: adjuvant-induced arthritis (AIA) model; details: day 21, ELISA; MPT0G009 25 mg/kg, SAHA 200 mg/kg, indomethacin 1 mg/kg
# Description: (FIG. 8B) Hind paw volumes in the indicated group of rats were measured using a digital plethysmometer on the indicated day after AIA induction. […] (FIG. 8D) Serum levels of interleukin (IL)-1β (left panel) and IL-6 (right panel) on day 21 as measured by enzyme-linked immunosorbent assay (ELISA). […] (FIG. 8F) The bone mineral density (BMD, in mg/mm^3) and the bone mineral content (BMC, in mg) values for the bone tissue of the tarsus were analyzed using CT Analysis Software.
# p21 = p21 expression by flow cytometry or western blot in RA-FLS; format: cell-based; details: 24 h, 1 μM MPT0G009 or 3 μM SAHA
# Description: (§2) (FIG. 1A) Structure of MPT0G009. […] Results in (FIGS. 1B-E) and (FIG. 1G) are means±SEM's for three independent experiments, *p<0.05 and **p<0.01 compared with no added inhibitor.
# cyclooxygenase-2 (COX-2) = assay: LPS-induced COX-2 protein expression, Western blot, RAW264.7; format: cell-based, Mouse; details: RAW264.7, 0.1-10 μM, LPS 25 ng/mL 24 h
# Description: (§3) Then the cells were harvested and whole cell extracts were prepared for Western blot analysis for iNOS and COX-2. The relative protein expressions are presented as mean±SEM for four replicates. *p<0.05 compared to the LPS-treated group.
# HDAC3 = assay: HDAC isoform protein levels, Western blot, RA-FLS; format: cell-based; details: 12 or 24 h; 1 μM MPT0G009 or 30 μM SAHA
# Description: Then cells were harvested and cell lysates were prepared for Western blot analysis of the indicated proteins. (FIG. 5C) RA-FLS were incubated for 1 h with or without the proteasome inhibitor, MG132 (1 μM). […] Results shown are representative of three independent experiments.
# prostaglandin E2 (PGE2) [5] = assay: LPS-induced PGE2 production by RA-FLS; format: cell-based; details: MPT0G009 0.1, 1, 10 μM; SAHA 0.3, 3, 30 μM; LPS 25 ng/mL 24 h
# Description: as §2, §1
# RAW264.7 macrophages = assay: M-CSF/RANKL-induced osteoclast formation; format: cell-based, Mouse; details: 5 nM MPT0G009 or 50 nM SAHA; M-CSF/RANKL 50 ng/mL, 5 days
# Description: Cells were then tartrate resistant acid phosphatase (TRAP) stained, and the numbers of TRAP-positive multinuclear cells were counted. […] Images are at ×100 magnification, and the arrows indicate differentiated osteoclasts. (FIG. 6C) RAW264.7 cells were treated as in (FIG. 6B), then incubated with a fluorescein isothiocyanate (FITC)-conjugated anti-CD51/61 antibody and analyzed by flow cytometry. (FIGS. 6D and 6E) RAW264.7 cells (1×10^5) were transfected with 1 μg of pGL4.32[luc2P/NF-κB-RE/Hygro] (FIG. 6D) or pGL4.30[luc2P/NFAT-RE/Hygro] (FIG. 6E) for 24 h and then incubated for 30 min with or without MPT0G009 (5 nM). Then RANKL (50 ng/mL) was added and incubation was continued for an additional 24 h, after which luciferase activity was determined. Results in (FIGS. 6A, 6D, and 6E) are the means±SEM's for three independent experiments. **p<0.01 compared with the indicated controls.
# Bone destruction is one characteristic of RA pathogenesis, resulting in joint dysfunction. Differentiation of mouse macrophages osteoclast-like cells can be induced in the presence of M-CSF and RANKL, which has been used as a model to investigate osteoclast differentiation. […] Subsequently, multinucleate tartrate resistant acid phosphatase (TRAP)-positive cells were counted.
# [6] = rats, SAHA (reference 30), cited from earlier work
# HIG-82 synoviocytes = assay: SRB anti-proliferation assay; format: cell-based; details: 24 or 48 h incubation
# Description: as §2
# RA-FLS [7] = assay: SRB anti-proliferation assay; format: cell-based; details: 24 or 48 h incubation
# Description: as §2
# IL-6 = assay: IL-1β-induced IL-6 production by RA-FLS; format: cell-based; details: MPT0G009 0.1, 1, 10 μM; SAHA 0.3, 3, 30 μM; IL-1β 10 ng/mL 24 h
# Description: as §2, §1
# [8] = system: inducible nitric oxide synthase (iNOS); assay: LPS-induced iNOS protein expression, Western blot, RAW264.7; format: cell-based, Mouse; details: RAW264.7, 0.1-10 μM, LPS 25 ng/mL 24 h
# Description: as §3
# RA-FLS [9] = assay: cell cycle distribution by flow cytometry (propidium iodide); format: cell-based; details: 24 h
# Description: as §2
# [10] = MPT0G009 0.1, 1, 10 μM, SAHA 0.3, 3, 30 μM, LPS 25 ng/mL 24 h
smiles,measurement,setting,value
O=C(/C=C/c1ccc2c(ccn2S(=O)(=O)c2ccccc2)c1)NO [Compound 6],IC50,prostaglandin E2 (PGE2) [1],5130 ± 480 nM
same,IC50,nitric oxide (NO),> 10000 nM
same,IC50,interleukin-6 (IL-6),170 nM
same,IC50,[2],3730 ± 260 nM
"O=C(C=Cc1ccc2c(c1)CCN2S(=O)(=O)c1ccccc1)NO [Compound 7, 3-(1-Benzenesulfonyl-2,3-dihydro-1H-indol-5-yl)-N-hydroxyacrylamide]",IC50,prostaglandin E2 (PGE2) [1],1680 ± 270 nM
same,IC50,nitric oxide (NO),4640 ± 120 nM
same,IC50,interleukin-6 (IL-6),20 nM
same,IC50,[2],990 ± 70 nM
"COc1cccc(S(=O)(=O)N2CCc3cc(C=CC(=O)NO)ccc32)c1 [Compound 8, 3-[1-(3-Methoxybenzenesulfonyl)-2,3-dihydro-1H-indol-5-yl]-N-hydroxyacrylamide]",melting point,,156 to 157 °C
same,IC50,prostaglandin E2 (PGE2) [1],1360 ± 290 nM
same,IC50,nitric oxide (NO),7350 ± 830 nM
same,IC50,interleukin-6 (IL-6),20 nM
same,IC50,[2],1090 ± 120 nM
"COc1ccc(S(=O)(=O)N2CCc3cc(C=CC(=O)NO)ccc32)cc1OC [Compound 10, 3-[1-(3,4-Dimethoxybenzenesulfonyl)-2,3-dihydro-1H-indol-5-yl]-N-hydroxyacrylamide]",melting point,,192 to 193 °C
same,IC50,prostaglandin E2 (PGE2) [1],1900 ± 210 nM
same,IC50,nitric oxide (NO),7310 ± 660 nM
same,IC50,interleukin-6 (IL-6),10 nM
same,IC50,[2],620 ± 120 nM
"O=C(C=Cc1ccc2c(c1)CCN2S(=O)(=O)c1ccc(F)cc1)NO [Compound 11, 3-[1-(4-Fluorobenzenesulfonyl)-2,3-dihydro-1H-indol-5-yl]-N-hydroxyacrylamide]",melting point,,129 to 131 °C
same,IC50,prostaglandin E2 (PGE2) [1],1310 ± 160 nM
same,IC50,nitric oxide (NO),4410 ± 310 nM
same,IC50,interleukin-6 (IL-6),30 nM
same,IC50,[2],1040 ± 250 nM
"O=C(C=Cc1ccc2c(c1)CCN2S(=O)(=O)c1ccc(Cl)cc1)NO [Compound 12, 3-[1-(4-Chlorobenzenesulfonyl)-2,3-dihydro-1H-indol-5-yl]-N-hydroxyacrylamide]",melting point,,159 to 160 °C
same,IC50,prostaglandin E2 (PGE2) [1],1040 ± 150 nM
same,IC50,nitric oxide (NO),5490 ± 480 nM
same,IC50,interleukin-6 (IL-6),20 nM
same,IC50,[2],1010 ± 110 nM
"O=C(C=Cc1ccc2c(c1)CCN2S(=O)(=O)c1ccc([N+](=O)[O-])cc1)NO [Compound 13, 3-[1-(4-Nitrobenzenesulfonyl)-2,3-dihydro-1H-indol-5-yl]-N-Hydroxyacrylamide]",melting point,,163 to 165 °C
same,IC50,prostaglandin E2 (PGE2) [1],1760 ± 260 nM
same,IC50,nitric oxide (NO),3110 ± 370 nM
same,IC50,interleukin-6 (IL-6),20 nM
same,IC50,[2],1370 ± 180 nM
"Nc1ccc(S(=O)(=O)N2CCc3cc(C=CC(=O)NO)ccc32)cc1 [Compound 14, 3-[1-(4-Aminobenzenesulfonyl)-2,3-dihydro-1H-indol-5-yl]-N-hydroxyacrylamide]",melting point,,97 to 99 °C
same,IC50,prostaglandin E2 (PGE2) [1],> 10000 nM
same,IC50,nitric oxide (NO),> 10000 nM
same,IC50,interleukin-6 (IL-6),> 10000 nM
same,IC50,[2],> 10000 nM
"CN(C)c1cccc2c(S(=O)(=O)N3CCc4cc(C=CC(=O)NO)ccc43)cccc12 [Compound 15, 3-[1-(5-Dimethylaminonaphthalene-1-sulfonyl)-2,3-dihydro-1H-indol-5-yl]-N-hydroxyacrylamide]",melting point,,142 to 143 °C
same,IC50,prostaglandin E2 (PGE2) [1],2700 ± 430 nM
same,IC50,nitric oxide (NO),> 10000 nM
same,IC50,interleukin-6 (IL-6),90 nM
same,IC50,[2],2110 ± 280 nM
"COc1ccc2c(c1)c(CC(=O)O)c(C)n2C(=O)c1ccc(Cl)cc1 [Indomethacin, reference compound]",carrageenan-induced hind paw edema,[3],suppressed
same,serum levels of IL-1β,[4],significant decreases
same,serum levels of IL-6,[4],significant decreases
"O=C(CCCCCCC(=O)Nc1ccccc1)NO [SAHA, Suberanilohydroxamic Acid, reference compound]",expression of p21,p21,significantly increased
same,paw thickness reduced compared to control,"[3]; SAHA 200 mg/kg oral, 3 h after carrageenan",15.7%
same,carrageenan-induced hind paw edema,[3],significantly inhibited
same,carrageenan-induced hind paw edema,[3]; listed as SAHA (1),suppress
same,COX-2 protein expression,cyclooxygenase-2 (COX-2),significantly inhibited
same,COX-2 protein expression,cyclooxygenase-2 (COX-2); listed as SAHA (1),concentration-dependently inhibitory effects
same,levels of HDAC3 in RA-FLS,HDAC3,no effect
same,PGE2 production by RA-FLS,prostaglandin E2 (PGE2) [5],inhibited
same,expression of osteoclast-specific marker CD51/61,RAW264.7 macrophages,no effect
same,formation of M-CSF/RANKL-induced TRAP-positive cells,RAW264.7 macrophages,no effect
same,serum levels of IL-1β,[4],significant decreases
same,serum levels of IL-6,[4],significant decreases
same,AUC(0-inf),[6]; iv 2 mg/kg,278 ng·h/mL
same,CL,[6]; iv 2 mg/kg,134 mL/min/kg
same,T1/2,[6]; iv 2 mg/kg,38.4 min
same,Vd,[6]; iv 2 mg/kg,3.92 L/kg
same,AUC(0-inf),[6]; po 5 mg/kg,49.40 ng·h/mL
same,Cmax,[6]; po 5 mg/kg,83.90 ng/mL
same,F,[6]; po 5 mg/kg,6.9%
same,T1/2,[6]; po 5 mg/kg,67.8 min
same,Tmax,[6]; po 5 mg/kg,10.2 min
same,proliferation of HIG-82 synoviocytes,HIG-82 synoviocytes,concentration-dependent anti-proliferative effects
same,proliferation of RA-FLS,RA-FLS [7],concentration-dependent anti-proliferative effects
same,PGE2 production by RAW264.7 cells,prostaglandin E2 (PGE2) [1]; [10],inhibited
same,IL-6 production by RA-FLS,IL-6,inhibited
same,iNOS protein expression,[8],significantly inhibited
same,iNOS protein expression,[8]; listed as SAHA (1),concentration-dependently inhibitory effects
same,NO production by RAW264.7 cells,nitric oxide (NO); [10],inhibited
same,subG1 peak (cellular apoptosis),"RA-FLS [9]; MPT0G009 1-1000 nM, SAHA 3-3000 nM",did not increase the subG1 peak
same,G0/G1 phase arrest,RA-FLS [9]; all concentrations of both agents,G0/G1 phase arrest was observed
